Results taken from article PMC4783772, “PEGylated substrates of NSP4 protease: A tool to study protease specificity” (Scientific Reports, 2016).
Where two headings read alike, the source gives them in different places. Square brackets hold non-standard residues; d marks the D form. Side chains are listed from the residue outwards. Peptide text beside a SMILES is read from it. * marks the point of attachment. 2Abz = Nc1ccccc1C(=O)O; Cbz = O=C(OCc1ccccc1)*; Dap = NC[C@H](N)C(=O)O; X1 = N=C(N)NCCOCC(=O)*; AEEA = NCCOCCOCC(=O)O

Columns and labels:
[1] = system: hNSP4; experiment: Proteolytic cleavage pattern / stability with hNSP4 by HPLC; assay type: biochemical, human; conditions: hNSP4 14 nM, RP-HPLC; for stability of the cleaved fluorescent fragment with hNSP4: up to 48 h
Description: Figure 4 HPLC analysis of substrate 1 (1.97 μM) incubated with hNSP4 (14 nM) at different time points: 0, 15 min, 24 h and 48 h.
For each sample of diluted substrate (concentrations 1.97 × 10^−6 M), the appropriate amount of enzyme (1.46 × 10^−8 M) was added, and the solution was incubated for 5, 30, and 60 min. The progress of the proteolytic reaction was monitored by RP-HPLC. The individual peaks resulting from the hydrolysis reaction were collected and identified using the mass spectra which were recorded on a Biflex III MALDI TOF mass spectrometer (Bruker Daltonics, Germany) using α-cyano-4-hydroxycinnamic acid as a matrix.

[2] = biological target: T1, human NSP4 (Homo sapiens, UniProt Q6UWY2); experiment: Determination of kinetic parameters (KM, kcat, kcat/KM) of substrate hydrolysis by NSP4; assay type: biochemical; conditions: for kcat/KM: calculated from kcat and KM values
T1 construct: made in house; host or cells: Pichia pastoris
Description: (§1) For the enzymatic studies, we used human NSP4 expressed in a Pichia pastoris expression system as described in ref. [15]. The NSP4 concentration used in the deconvolution of the library was […]. The bovine β-trypsin (Sigma Chem. Co., USA) concentration was determined by spectrophotometric titration with 4-nitrophenyl-4′-guanidinobenzoate (NPGB) at an enzyme concentration oscillating around 10^−6 M. Standardized trypsin solution was used to titrate BPTI (Sigma Chem. Co., USA) which in turn served to determine the solution concentrations of the produced NSP4. The substrate ABZ-Met-Phe-Pro-Arg-ANB-NH2 recently developed in our lab was used. The deconvolution of peptide libraries was carried out by the iterative solution method. The lyophilizates obtained for each sublibrary were dissolved in dimethyl sulfoxide (DMSO) to a final concentration of 5 mg/ml, and then diluted tenfold in an assay buffer. The fluorescence tests were performed using a FluoroStar OMEGA fluorescent microplate reader (BMG, Germany). The excitation and emission wavelengths were 320 nm and 410 nm for the ABZ/ANB. Enzymatic hydrolysis of the peptide was performed in 20 mM Tris-Cl buffer supplemented by 150 mM NaCl (pH 7.4) at 37 °C and continued over 30 min.
Assay conditions for the determination of the Michaelis constants (KM) and catalytic constants (kcat) were as noted above. The specificity constants (kcat/KM) were calculated from kcat and KM values. Measurements were performed with an enzyme concentration of 1.46 × 10^−9 M. Three to five measurements were carried out for each compound (systematic error expressed as a standard deviation never exceeded 20%). The calculated initial hydrolysis rates were used as a measure of the substrate activity of the investigated peptides. All details of kinetic studies and the method of calculating kinetic parameters have been described elsewhere.

[3] = biological target: T1, human NSP4; experiment: Iterative deconvolution in solution of library ABZ-X4-X3-X2-Arg-ANB-NH2 against NSP4; assay type: biochemical; conditions: ABZ-Dap(O2(Cbz))-Dap(Cbz)-X2-Arg-ANB-NH2, 18 individual peptides; 3.4 × 10^−5 M, NSP4 1.46 × 10^−8 M (Figure 3); pH 7.4, 37 °C, 30 min; fluorescence
Description: In order to construct a novel type of internally quenched library, we used different monoprotected heterobifunctional PEG moieties to diversify a library based on a diaminopropionic acid scaffold (Fig. 1 presents the library formula and its chemical components). The library was synthesized using the mix and split method via Fmoc chemistry. The formation of Dap-PEG conjugates was performed on resin via a submonomeric method (one example of DAPEG-based molecule synthesis is presented in Fig. 2). Our goal was to investigate P2, P3, and P4 subsite preferences with a fixed P1 position occupied by an Arg residue. Each peptide in the library was flanked by a C-terminal amide of 5-amino-2-nitrobenozic acid (acceptor of fluorescence) and an N-terminal 2-amino benzoic acid (fluorescence donor) pair which allowed for simultaneous UV and fluorescence monitoring. Screening process was performed using an iterative mode of deconvolution in solution.
Figure 3 The deconvolution of the library (at average concentration 3.4 × 10^−5 M) with general formula ABZ-X4-X3-X2-Arg-ANB-NH2 against NSP4 (1.46 × 10^−8 M).
For the enzymatic studies, we used human NSP4 expressed in a Pichia pastoris expression system as described in ref. [15]. […] The fluorescence tests were performed using a FluoroStar OMEGA fluorescent microplate reader (BMG, Germany). […]

[4] = system: cathepsin G (CatG); experiment: Selectivity: incubation with cathepsin G; assay type: biochemical, human; conditions: substrate 1.97 μM; CatG 10^−8 M, 8.7 nM (Figure 5A legend); pH 7.4, 37 °C, 30 min
Description: (§2) Figure 5 Incubation of substrate 1 (1.97 μM) with (A) neutrophil serine proteases (cathepsin G, elastase, and proteinase 3) at a concentration of 8.7 nM; (B) set of blood-associated proteases involving cathepsins and kallikreins.
as §1, with “Enzymatic hydrolysis of the peptide was performed in 20 mM Tris-Cl buffer supplemented by 150 mM NaCl (pH 7.4) at 37 °C and continued over 30 min.” left out

[5] = system: human neutrophil elastase (HNE); experiment: Selectivity: incubation with neutrophil elastase; assay type: biochemical; conditions: substrate 1.97 μM; HNE 10^−8 M, 8.7 nM (Figure 5A legend); pH 7.4, 37 °C, 30 min
Description: as §2
as §1, with “Enzymatic hydrolysis of the peptide was performed in 20 mM Tris-Cl buffer supplemented by 150 mM NaCl (pH 7.4) at 37 °C and continued over 30 min.” left out

[6] = system: proteinase 3 (PR3); experiment: Selectivity: incubation with proteinase 3; assay type: biochemical, human; conditions: substrate 1.97 μM; PR3 10^−8 M, 8.7 nM (Figure 5A legend); pH 7.4, 37 °C, 30 min
Description: as §2
as §1, with “Enzymatic hydrolysis of the peptide was performed in 20 mM Tris-Cl buffer supplemented by 150 mM NaCl (pH 7.4) at 37 °C and continued over 30 min.” left out

[7] = system: KLK14; experiment: Selectivity: incubation with KLK14; assay type: biochemical, human; conditions: substrate 1.97 μM; Figure 5B; pH 7.4, 37 °C, 30 min
Description: as §2
as §1, with “Enzymatic hydrolysis of the peptide was performed in 20 mM Tris-Cl buffer supplemented by 150 mM NaCl (pH 7.4) at 37 °C and continued over 30 min.” left out

[8] = system: set of proteases related to blood cells, including cathepsins and kallikreins; experiment: Selectivity: set of blood-associated proteases (cathepsins and kallikreins); assay type: biochemical; conditions: substrate 1.97 μM, enzymes 10^−8 M, Figure 5B, pH 7.4, 37 °C, 30 min
Description: as §2
as §1, with “Enzymatic hydrolysis of the peptide was performed in 20 mM Tris-Cl buffer supplemented by 150 mM NaCl (pH 7.4) at 37 °C and continued over 30 min.” left out

[9] = system: hNSP4; experiment: Detection limit of hNSP4 with substrate 1; assay type: biochemical, human
Description: The incubation of substrate 1 with decreasing amounts of hNSP4 yielded a visible fluorescence (signal-to-noise ratio of 3:1) at 10^−11 M of the studied enzyme (Fig. S8).
as §1, with “Enzymatic hydrolysis of the peptide was performed in 20 mM Tris-Cl buffer supplemented by 150 mM NaCl (pH 7.4) at 37 °C and continued over 30 min.” left out

[10] = system: NSP4; experiment: NSP4-mediated proteolysis of substrate 1 in the selectivity panel; assay type: biochemical, human; conditions: substrate 1 1.97 μM; Figure 5
Description: as §2
as §1, with “Enzymatic hydrolysis of the peptide was performed in 20 mM Tris-Cl buffer supplemented by 150 mM NaCl (pH 7.4) at 37 °C and continued over 30 min.” left out

[11] = qualitative statement
[12] = system: NSP4; conditions: cited from earlier work
From the text: Table 2 Kinetic parameters of reported artificial substrates of NSP4. | column: kcat [s^−1]; KM [μM]; kcat/KM M^−1 × s^−1

[13] = 20 mM Tris-Cl, 150 mM NaCl, pH 7.4, 37 °C, NSP4 1.46 × 10^−9 M, fluorescence ex 320 / em 410 nm, three to five measurements, SD never exceeded 20%

T1 sequence (Q6UWY2 32-283): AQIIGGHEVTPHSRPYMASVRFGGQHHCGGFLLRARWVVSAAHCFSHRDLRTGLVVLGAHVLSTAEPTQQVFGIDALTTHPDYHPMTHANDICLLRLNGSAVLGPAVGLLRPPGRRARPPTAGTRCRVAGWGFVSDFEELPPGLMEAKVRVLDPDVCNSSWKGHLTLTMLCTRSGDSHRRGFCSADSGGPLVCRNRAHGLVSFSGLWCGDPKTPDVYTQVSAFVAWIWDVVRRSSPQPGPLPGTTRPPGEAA

In the case of N=C(N)NCCC[C@H](NC(=O)[C@H](CNC(=O)COCCNC(=N)N)NC(=O)[C@H](CNC(=O)OCc1ccccc1)NC(=O)[C@H](CNC(=O)COCCOCCNC(=O)OCc1ccccc1)NC(=O)c1ccccc1N)C(=O)O [ABZ-Dap(O2(Cbz))-Dap(Cbz)-Dap(GO1)-Arg-OH] (H-[2Abz][Dap]([AEEA-Cbz])[Dap](Cbz)[Dap](X1)R-OH), the “stability of the cleaved fluorescent fragment with hNSP4” value [1] is reported as “no further degraded up to 48 h” and the “stability of the cleaved fluorescent fragment with hNSP4” value ([1]; listed as cleaved N-terminal fragment of the peptidomimetic chain) is reported as “exceptional proteolytic stability”.
Molecule “ABZ-Dap(O2(Cbz))-Dap(Cbz)-Dap(GO1)-Arg-ANB-NH2 [substrate 1]” has a Km [2, 13] of 7.6 ± 0.5 µM, a kcat [2, 13] of 1 s⁻¹ and a kcat ([2]; 20 mM Tris-Cl, 150 mM NaCl, pH 7.4, 37 °C, NSP4 1.46 × 10^−9 M, fluorescence ex 320 / em 410 nm, three to five measurements, SD never exceeded 20%, listed as ABZ-Dap(O2(Cbz))-Dap(Cbz)-Dap(GO1)-Arg-ANB-NH2) of 1.0 ± 0.1 s⁻¹. The kcat/KM ([2]; pH 7.4, 37 °C, NSP4 1.46 × 10^−9 M) was 130000 M⁻¹ s⁻¹, the kcat/KM ([2]; pH 7.4, 37 °C, NSP4 1.46 × 10^−9 M, listed as ABZ-Dap(O2(Cbz))-Dap(Cbz)-Dap(GO1)-Arg-ANB-NH2) was 131,579 M^−1 × s^−1 and the kcat/KM ([2]; pH 7.4, 37 °C, NSP4 1.46 × 10^−9 M, listed as the developed compound) was “over 1.31 × 10^5 M^−1 × s^−1”. For the same molecule, the “specificity (kcat/KM) relative to substrate selected by Kasperkiewicz et al. [19]” value ([2]; comparison with literature substrate, Kasperkiewicz et al.[19]) was 4 times higher, the “proteolysis / fluorescent intensity, peptides modified at X2” value [3] was “most susceptible for NSP4-mediated proteolysis” and the “proteolysis by CatG” value [4] was “no visible proteolysis”. The “proteolysis by HNE” value [5] was “no visible proteolysis”, the “proteolysis by PR3” value [6] was “no visible proteolysis” and the “degradation by KLK14 compared with NSP4” value [7] was “to a much lesser extend to degradation by KLK14”. For the same molecule, the “cleavage by other blood-associated proteases” value [8] was “No other proteolytic enzyme at a concentration of 10^−8 M was able to cleave any of the peptide bonds”, the “detection limit in words” value ([9]; NSP4 detection with substrate 1) was “subnanomolar” and the “detection limit (hNSP4 concentration giving visible fluorescence)” value ([9]; signal-to-noise ratio of 3:1, constant amount of substrate 1, decreasing amounts of hNSP4, Fig. S8) was 10^−11 M. For the same molecule, the “cleavage site by hNSP4” value ([1]; substrate 1 1.97 μM, 0, 15 min, 24 h, 48 h, MS identification) was “cleavage of the peptide bond located between Arg and ANB-NH2”, the “susceptibility to NSP4-mediated proteolysis” value [10] was “susceptible to NSP4-mediated proteolysis” and the solubility in water [11] was “excellent solubility in water”.
In the case of Ac-hCha-Phe(4-guanidine)-Oic-Arg-ACC, the Km ([12]; ref [19]) is listed as 61 ± 9.1 µM, the kcat ([12]; ref [19]) is listed as 2.0 ± 0.5 s⁻¹ and the kcat/KM ([12]; ref [19]) is listed as 32,786 M^−1 × s^−1.
In the case of “MCA-PEG-Ile-Arg-Arg-Ser-Ser-Tyr-Ser-Phe-Lys(Dnp)-Lys”, the Km ([12]; ref [18]) is listed as 13.8 ± 3.3 µM, the kcat ([12]; ref [18]) is listed as 0.136 ± 0.008 s⁻¹ and the kcat/KM ([12]; ref [18]) is listed as 10,000 M^−1 × s^−1.
